Experimental data taken from patent US4046762A, “Esters and amides of 3-aryl-1,4 benzodioxan-2-carboxylic acids” (Instituto Luso Farmaco D'Italia S.r.l., priority 1972, dated 1977).
Where a name gives a salt, the structure may show the parent alone.

Tests used:
Oedema from charragenin = test: Oedema from charragenin, rat; type: in vivo; conditions: i.p.
tail of mouse = test: Local anaesthetic activity, tail of mouse; type: in vivo
sciatic nerve of rat = test: Local anaesthetic activity, sciatic nerve of rat
[1] = Indicative acute toxicity, mouse (intraperitoneally); conditions: in vivo, ip, read-out: Indicative acute toxicity, DL50
Antituxive activity = test: Antituxive activity; type: in vivo; conditions: for ED50: read-out: Antituxive activity, DE50
ileum of Guinea pig = test: Antihystaminic activity, ileum of Guinea pig; conditions: Cavia porcellus, 10 γ/ml
[2] = system: Stretching from acetic acid; test: Stretching from acetic acid; type: in vivo; conditions: for ED50: read-out: Stretching from acetic acid, DE50
central nervous system [3] = test: Activity on central nervous system, mouse: depression of spontaneous motility; type: in vivo; conditions: orally
Antipyresis = test: Antipyresis, rat; type: in vivo; conditions: 65 mg/kg
central nervous system [4] = test: Activity on central nervous system, mouse: Potentiation of barbituric hypnosis; type: in vivo; conditions: orally, 15 mg/kg
central nervous system [5] = test: Activity on central nervous system, mouse: Catalepsy (haloperidol); type: in vivo; conditions: orally, 15 mg/kg
central nervous system [6] = test: Activity on central nervous system, mouse: Stereotipy (apomorphine); type: in vivo; conditions: orally, 40 mg/kg
central nervous system [7] = test: Activity on central nervous system, mouse: Stereotipy (amphetamine); type: in vivo; conditions: orally, 180 mg/kg
Arrhytmia CaCl2 = Arrhytmia CaCl2 - rat; type: in vivo; conditions: intravenously, 7.5 mg/kg

O=C(OCCOCCN1CCOCC1)C1Oc2ccccc2OC1c1ccccc1 (stereo not drawn) [LR 348, morpholinoethoxyethyl (3-phenyl-1,4-benzodioxan-2-yl)-carboxylate,hydrochloride]
Oedema from charragenin, % (Oedema from charragenin; 50 mg/kg): 40%
Local anaesthetic activity, tail of mouse, DE50 (tail of mouse): 2.70 mg/mL
Local anaesthetic activity, sciatic nerve of rat, DE50 (sciatic nerve of rat): 12.2 mg/mL
LD50 [1]: 250 mg/kg
ED50 (Antituxive activity): 50 mg/kg
inhibition at 10 µg/mL (ileum of Guinea pig): 60%
ED50 [2]: 15.6 mg/kg

CCN(CC)CCOCCOC(=O)C1Oc2ccccc2OC1c1ccccc1 (stereo not drawn) [LR 349, n,n-diethylaminoethoxyethyl (3-phenyl-1,4-benzodioxan-2-yl)-carboxylate, citrate]
Oedema from charragenin, % (Oedema from charragenin; 50 mg/kg): 50%
Local anaesthetic activity, tail of mouse, DE50 (tail of mouse): 2.85 mg/mL
Local anaesthetic activity, sciatic nerve of rat, DE50 (sciatic nerve of rat): 11.2 mg/mL
LD50 [1]: 200 mg/kg
ED50 (Antituxive activity): 39.5 mg/kg
Stretching from acetic acid, % ([2]; 10 mg/kg): 20%

CC(C)NC(=O)C1Oc2ccccc2OC1c1ccccc1 (stereo not drawn) [LR 367, n-(3-phenyl-1,4-benzodioxan-2-ylcarbonyl)-isopropylamine]
Oedema from charragenin, % (Oedema from charragenin; 200 mg/kg): 30%
depression of spontaneous motility, % (central nervous system [3]; 150 mg/kg): 32%
LD50 [1]: > 3000 mg/kg
ED50 (Antituxive activity): 86 mg/kg
ED50 [2]: 138 mg/kg

O=C(C1Oc2ccccc2OC1c1ccccc1)N1CCN(c2ccccc2)CC1 (stereo not drawn) [LR 394, n'-phenyl-N-(3-phenyl-1,4-benzodioxan-2-ylcarbonyl)-piperazine.H2 0]
Oedema from charragenin, % (Oedema from charragenin; 42 mg/kg): 50%
ED50 (central nervous system [3]; po, read-out: depression of spontaneous motility, DE50): 33.5 mg/kg
LD50 [1]: 330 mg/kg
Antituxive activity, % (Antituxive activity; 10 mg/kg): 64%
Antipyresis, % (Antipyresis): 100%
ED50 [2]: 22 mg/kg

CCN(CC)CCNC(=O)C1Oc2ccccc2OC1c1ccccc1 (stereo not drawn) [LR 510, n-(n',n'-diethylaminoethyl)-(3-phenyl-1,4-benzodioxan-2-ylcarbonyl)-amine]
Potentiation of barbituric hypnosis, % (central nervous system [4]): 20%
LD50 [1]: 75 mg/kg
Catalepsy (haloperidol), % (central nervous system [5]): 33%

O=C(NO)C1Oc2ccccc2OC1c1ccccc1 (stereo not drawn) [LR 518, (3-phenyl-1,4-benzodioxan-2-yl)-carbohydroxamic acid]
Stereotipy (apomorphine), % (central nervous system [6]): 30%
Oedema from charragenin, % (Oedema from charragenin; 40 mg/kg): 12%
LD50 [1]: 175 mg/kg

O=C(C1Oc2ccccc2OC1c1ccccc1)N1CCOCC1 (stereo not drawn) [LR 519, n-(3-phenyl-1,4-benzodioxan-2-ylcarbonyl)-morpholine]
Oedema from charragenin, % (Oedema from charragenin; 180 mg/kg): 15%
LD50 [1]: 750 mg/kg
Stereotipy (amphetamine), % (central nervous system [7]): 20%

CCN(CC)CCOC(=O)C1Oc2ccccc2OC1c1ccccc1 (stereo not drawn) [LR 520, n,n-diethylaminoethyl (3-phenyl-1,4-benzodioxan-2-yl)-carboxylate,citrate]
Oedema from charragenin, % (Oedema from charragenin; 60 mg/kg): 9%
LD50 [1]: 300 mg/kg
Arrhytmia CaCl2 (Arrhytmia CaCl2): 40
